Read-outs that look alike come from different tables or passages of the source.
Experiments:
Assay type in all cases: cell-based
[1] = test system: P. aeruginosa (ATCC 9027); assay: Zone of inhibition study (disc on agar plate); conditions: radius around 12 mm disc, 24 hours at 37±1° C., triplicates
Method: (§1) The microbicidal composite material was tested in triplicates against E. coli (ATCC25922), S. aureus (ATCC 25923), P. aeruginosa (ATCC 9027) and C. albicans (ATCC 90028). The test material was cut as a 12 mm diameter disc and placed on 90 mm agar plates spread with 100 μl of approximately 10^8 CFU/ml of each bacterial strain and incubated at 37±1° C. for 24 hours. For a negative control, a filter paper disc containing no antibiotic was used. The zone of inhibition (Radius in mm) around the discs was measured using a transparent ruler. The results of this test are tabulated as under Table-5.

E. coli (ATCC25922) = assay: Zone of inhibition study (disc on agar plate); conditions: radius around 12 mm disc, 24 hours at 37±1° C., triplicates, Ciprofloxacin 1 μg/Disc
Method: as §1

S. aureus (ATCC 25923) [2] = assay: Zone of inhibition study (disc on agar plate); conditions: radius around 12 mm disc, 24 hours at 37±1° C., triplicates
Method: as §1

C. albicans = assay: Residual microbes on ZOI disc after transfer to Nutrient broth
Method: (§2) After 24 hours, the discs were transferred to Nutrient broth which was then incubated at 37±1° C. for another 24 hours. The broth contents were placed on Nutrient agar plates to measure the residual percentage of microbes present on the disc as a result of remaining on a lawn of bacteria overnight. Percentage survival was calculated as [number of CFU/ml in test substance/number of CFU/ml in control substance]. The killing percentage was calculated as 100-residual percentage. The results are tabulates as under Table-6.

S. aureus [3] = assay: as above
Method: as §2

P. aeruginosa [4] = assay: as above
Method: as §2

E. coli = assay: as above
Method: as §2

S. aureus [5] = assay: Bio film disruption assay (crystal violet, OD 570 nm); conditions: Staphylococcus aureus, overnight grown culture, 24 hours, 15 mm disc, Ciprofloxacin 1 ug/ml, read-out: % Inhibition, Percentage Effect in Bio film disruption assay
Method: (§3) 15 millimeters (mm) Discs of the microbicidal composite material were cut and placed into 24 well plates containing approximately 10^8 CFU/ml in Tryptic Soy Broth (TSB) of P. aeruginosa and S. aureus respectively and incubated at 37±1° C. for the Bio film Prevention assay. Similarly, 15 millimeter (mm) Discs of the microbicidal composite material were cut and placed into 24 well plates containing overnight grown culture of P. aeruginosa and S. aureus respectively in TSB and further incubated for 24 hours at 37±1° C. for the disruption assay.
(§4) Further, plain filter paper discs were placed in culture control (C) wells with approximately 10^8 CFU/ml of the above bacteria in Tryptic Soy Broth (TSB) for both the Prevention and Disruption assay. After incubation, the contents were removed and washed four times with Phosphate Buffer saline (pH 7.2). A 500 μl of 0.1% crystal violet stain was added to each well and incubated for 20 minutes at room temperature, washed, and dried. Subsequently, 500 μl of ethanol supplemented with 2% acetic acid was added to each well for 30 min. The Optical Density (OD) of stained adherent Bio film was obtained by using a Tecan plate reader at 570 nm wavelength. Percentage inhibitions in the respective assays were calculated in comparison to the control.

P. aeruginosa [6] = assay: as above; conditions: Pseudomonas aeruginosa, overnight grown culture, 24 hours, 15 mm disc, Ciprofloxacin 1 ug/ml, read-out: % Inhibition, Percentage Effect in Bio film disruption assay
Method: as §3, §4

[7] = test system: P. aeruginosa (ATCC 9027); assay: Rate of microbicidal effect upon contact (CFU enumeration over time); conditions: Pseudomonas aeruginosa, 15 mm disc in approximately 10^8 CFU/ml, ciprofloxacin 1 μg/disc, read-out: killing percentage (inhibition of growth as percentage)
Method: (§5) Briefly, 15 millimeter (mm) discs of the microbicidal composite material were cut and placed into 24 well plates containing approximately 10^8 CFU/ml in Nutrient broth of S. aureus (ATCC 25923) & P. aeruginosa (ATCC 9027) respectively and incubated at 37±1° C. At intervals of 1, 5, 15, 30 and 60 minutes, broth samples were drawn and plated on nutrient agar plates and incubated for 24 hours at 37±1° C. for CFU enumeration. Two reference standards (ref-1, and ref-2) [Ref-1: Reference standard-I, includes a test material which is a cotton gauze material bonded with non siloxane based QAS and Ref-2: Reference standard-II includes a test material with active ingredient as silver Test Item refers to the ‘Microbicidal Composite Material’] and a disc containing 1 μg/disc ciprofloxacin. The results are tabulated in table 8 and table 9 as percentage recovery over time. Percentage survival was calculated as number of CFU/ml in test substance/number of CFU/ml in control substance. The killing percentage was calculated as 100-residual percentage.
(§6) FIG. 4 and FIG. 5 show the inhibition of growth as percentage in the Y-axis compared to the untreated control group.

S. aureus (ATCC 25923) [8] = assay: as above; conditions: Staphylococcus aureus, 15 mm disc in approximately 10^8 CFU/ml, ciprofloxacin 1 μg/disc, read-out: killing percentage (inhibition of growth as percentage)
Method: as §5, §6

S. aureus [9] = assay: Bio film prevention assay (crystal violet, OD 570 nm); conditions: Staphylococcus aureus, 15 mm disc, Ciprofloxacin 1 ug/ml, versus control, read-out: % Inhibition, Percentage Effect in Bio film prevention assay
Method: as §3, §4

P. aeruginosa [10] = assay: as above; conditions: Pseudomonas aeruginosa, 15 mm disc, Ciprofloxacin 1 ug/ml, versus control, read-out: % Inhibition, Percentage Effect in Bio film prevention assay
Method: as §3, §4

C. albicans (ATCC 90028) = assay: Zone of inhibition study (disc on agar plate); conditions: radius around 12 mm disc, 24 hours at 37±1° C., triplicates, Flucanazole 25 μg/Disc
Method: as §1

[11] = disc from ZOI assay in Nutrient broth for another 24 hours, CFU/ml versus control

## O=C(O)c1cn(C2CC2)c2cc(N3CCNCC3)c(F)cc2c1=O [Ciprofloxacin]
[1]
  ZOI (in mm) Mean: 9.50 mm
E. coli (ATCC25922)
  ZOI (in mm) Mean: 11.00 mm
S. aureus (ATCC 25923) [2]
  ZOI (in mm) Mean: 11.55 mm
C. albicans; 100-residual percentage
  Killing %: 99.9902%
C. albicans; [11]
  Residual %: 0.010%
S. aureus [3]; 100-residual percentage
  Killing %: 99.9921%
S. aureus [3]; [11]
  Residual %: 0.008%
P. aeruginosa [4]; 100-residual percentage
  Killing %: 99.9994%
P. aeruginosa [4]; [11]
  Residual %: 0.001%
E. coli; 100-residual percentage
  Killing %: 99.9997%
E. coli; [11]
  Residual %: 0.000%
S. aureus [5]
  inhibition at 1 µg/mL: 88.2%
P. aeruginosa [6]
  inhibition at 1 µg/mL: 91.4%
[7]; ATCC9027, 1 min, 1 minute
  inhibition at 1 µg/disc: 0%
[7]; ATCC9027, 5 min, 5 minutes
  inhibition at 1 µg/disc: 32.4%
[7]; ATCC9027, 0.25 h, 15 minutes
  inhibition at 1 µg/disc: 87.4%
[7]; ATCC9027, 0.5 h, 30 minutes
  inhibition at 1 µg/disc: 98%
[7]; ATCC9027, 1 h, 60 minutes
  inhibition at 1 µg/disc: 99.9%
S. aureus (ATCC 25923) [8]; ATCC25923, 1 min, 1 minute
  inhibition at 1 µg/disc: 0%
S. aureus (ATCC 25923) [8]; ATCC25923, 5 min, 5 minutes
  inhibition at 1 µg/disc: 32%
S. aureus (ATCC 25923) [8]; ATCC25923, 0.25 h, 15 minutes
  inhibition at 1 µg/disc: 86.2%
S. aureus (ATCC 25923) [8]; ATCC25923, 0.5 h, 30 minutes
  inhibition at 1 µg/disc: 79.1%
S. aureus (ATCC 25923) [8]; ATCC25923, 1 h, 60 minutes
  inhibition at 1 µg/disc: 98.8%
S. aureus [9]
  inhibition at 1 µg/mL: 93.1%
P. aeruginosa [10]
  inhibition at 1 µg/mL: 89.8%

## OC(Cn1cncn1)(Cn1cncn1)c1ccc(F)cc1F [Flucanazole]
C. albicans (ATCC 90028)
  ZOI (in mm) Mean: 3.60 mm

Source: patent US9566363B2, “Microbicidal composite material” (priority 2013, dated 2017)
